Measurements from US20220047687A1, “CHEMICAL SCALPEL” (FUNDACIÓN INSTITUTO DE INVESTIGACIÓN SANITARIA FUNDACIÓN …, priority 2019, published 2022).
“Also recorded” adds a separate entry of the source.

Legend:
[1] = system: peritoneal carcinomatosis (DHD cells); test: Adjusting the dose of collagenase as co-adjuvant in rats with carcinomatosis; format: in vivo, rat; details: 10 minutes, 37° C.
Experimental: In this sense, after the inoculation of DHD cells in all the animals, and therefore the induction of solid tumors in the peritoneum (peritoneal carcinomatosis), the optimum dose of collagenase in terms of safety for use thereof as a co-adjuvant for or enhancer of chemotherapy treatment with mitomycin C in various work groups was determined: • Control group: washed only with Ringer's lactate. The mesoderm readily separates and washing is non-hematic. Compact omentum. • Group 1: 370 U/mL of collagenase. Hematic washing liquid, destruction of the omentum and mesoderm. Tumor fragments in the washing liquid. • Group 2: 148 U/mL of collagenase. Slightly hematic washing liquid, readily separable omentum and mesoderm. Solid tumor fragments are observed in the washing liquid. • Group 3: 74 U/mL of collagenase. Non-hematic washing liquid, readily separable omentum and mesoderm. Few implants are observed in the washing liquid but the accessibility of the tumor implants in the mesoderm and omentum is absolute. • Group 4: 37 U/mL of collagenase. Non-hematic washing liquid, readily separable omentum and mesoderm. No tumor implants observed in the washing liquid, but they are seen to be completely exposed in both the mesoderm and omentum.
The surgical procedures during this phase consisted of a first method of peritoneal cancer induction in which DHD cells were injected into the peritoneum and 6-8 weeks were allowed to elapse until the checking for the existence of tumor masses in the peritoneum by means of abdominal palpation, and a second method of treatment in which, after giving the animals inhalation anesthesia, the abdominal cavity was exposed by means of a longitudinal incision of the abdomen, the peritoneal cavity filled with the collagenase solution at the different concentrations to be tested at 37° C.

[2] = system: abdominal organs and peritoneum; test: Survival and necropsy of healthy rats after peritoneal washing (groups A, B); details: group A, collagenase 37 U/mL; 1 died after surgery due to evisceration
Text: During this phase, a series of survival experiments were established with various work groups and subgroups to learn about the co-adjuvant or enhancing role of collagenase in the treatment of peritoneal tumors with chemotherapeutic agents such as mitomycin C:
Each group initially consisted of 6 rats (2×3). In the initial design, 3 animals were sacrificed after 15 days and the rest were left until the conditions of the animals required them to be sacrificed (subcutaneous tumor growth >0.5 cm in diameter) or a maximum of 2 months.

[3] = system: mutated KRAS oncogene; test: Digital PCR of KRAS in plasma; format: in vivo, rat; details: plasma
Experimental: (§1) The procedure was performed 2 times in the TCQ group, the first time with collagenase and after 2 minutes peritoneal washing with mitomycin C at the different concentrations to be tested was repeated. […] Blood was also collected from all the animals before sacrificing them, the blood was processed within the hour following its extraction to obtain plasma and to analyze, on one hand, the existence of the mutated KRAS oncogene (mutation in codon 12 of exon 1 expressed by DHD cells), and on the other hand the existence of collagenase traces or residues in blood after the peritoneal washes. A digital PCR was used for the KRAS oncogene localization study. For the collagenase trace study, the anonymized samples were sent to Lyposmol laboratories for the performance of specific anti-MMP-1 and anti-MMP-2 ELISAS.
To analyze the presence of mutated KRAS in the blood of the different groups by means of digital PCR, DNA was extracted from at least 2 ml of plasma/group by means of the QlAamp Circulating Nucleic Acid kit according to the manufacturer's data and the results were those listed in Table 4.

[4] = system: MMP-1; test: ELISA for collagenase residues in blood, anti-MMP-1; format: in vivo, rat; details: after treatment and the follow-up period, all animals
Experimental: as §1

[5] = system: MMP-2; test: ELISA for collagenase residues in blood, anti-MMP-2; format: in vivo, rat; details: after treatment and the follow-up period, all animals
Experimental: as §1

[6] = system: cytokines and chemokines; test: Cytokines circulating in plasma after collagenase washing; format: in vivo, rat
Experimental: A new blood test was performed with the 10 rats in the 1st group. For each of them, blood was taken 15 days after surgery. Post-collagenase cytokines were analyzed.
A new blood test is performed on the 6 rats in the 2nd group on 26/07/2018 and on the 4 controls.
Post-collagenase cytokines are analyzed

[7] = system: peritoneal tissues; test: Safety, histology and biochemistry in the adhesion model
Experimental: The concentration of collagenase used was 0.05% in PBS, with an application time of 20 min, in a volume of 20 ml, and at a temperature of 37° C. in a thermal blanket and with prior tempering of the drug.
Blood was drawn from all the rats by intracardiac puncture for biochemistry and cytokines.

Substance: Collagenase
- washing liquid, omentum, mesoderm and tumor implants after washing ([1]; Group 1: 370 U/mL): Hematic washing liquid, destruction of the omentum and mesoderm. Tumor fragments in the washing liquid.
- washing liquid, omentum, mesoderm and tumor implants after washing ([1]; Group 2: 148 U/mL): Slightly hematic washing liquid, readily separable omentum and mesoderm. Solid tumor fragments are observed in the washing liquid.
- washing liquid, omentum, mesoderm and tumor implants after washing ([1]; Group 3: 74 U/mL): Non-hematic washing liquid, readily separable omentum and mesoderm. Few implants are observed in the washing liquid but the accessibility of the tumor implants in the mesoderm and omentum is absolute.
- washing liquid, omentum, mesoderm and tumor implants after washing ([1]; Group 4: 37 U/mL): Non-hematic washing liquid, readily separable omentum and mesoderm. No tumor implants observed in the washing liquid, but they are seen to be completely exposed in both the mesoderm and omentum.
- survival [2]: 4 out of 5
- Mutated KRAS event no. ([3]; group A (healthy rats, collagenase 37 U/mL)): 0
- Mutated KRAS event no. ([3]; group F (DHD + collagenase 37 U/mL)): 1
- collagenase residues in blood, MMP-1 ELISA [4]: negative
- collagenase residues in blood, MMP-2 ELISA [5]: negative
- IL4 in plasma vs PBS ([6]; anti-inflammatory cytokine): Insignificant increase
- IL10 in plasma vs PBS ([6]; anti-inflammatory cytokine): Insignificant increase
- levels of all the cytokines and chemokines between the 2 groups ([6]; at four months): normalized
- G-CSF in plasma vs PBS ([6]; chemokines): no difference
- GM-CSF in plasma vs PBS ([6]; chemokines): no difference
- KC in plasma vs PBS ([6]; chemokines): no difference
- M-MCF in plasma vs PBS ([6]; chemokines): no difference
- MCP1 in plasma vs PBS ([6]; chemokines): significant increase
- MIP3a in plasma vs PBS ([6]; chemokines): no difference
- MIPla in plasma vs PBS ([6]; chemokines): no difference
- RANTRES in plasma vs PBS ([6]; chemokines): no difference
- VEGF in plasma vs PBS ([6]; chemokines): significant increase
- IL12-p70 in plasma vs PBS ([6]; pro-inflammatory cytokine): Significant increase (p<0.01)
- INF-gamma in plasma vs PBS ([6]; pro-inflammatory cytokine): no differences
- TNF-alpha in plasma vs PBS ([6]; pro-inflammatory cytokine): Significant increase (p<0.01)
- IL1a in plasma vs PBS ([6]; regulatory cytokine): no difference
- IL1b in plasma vs PBS ([6]; regulatory cytokine): no difference
- IL2 in plasma vs PBS ([6]; regulatory cytokine): significant increase (p<0.05)
- IL5 in plasma vs PBS ([6]; regulatory cytokine): no difference
- IL6 in plasma vs PBS ([6]; regulatory cytokine): no difference
- IL7 in plasma vs PBS ([6]; regulatory cytokine): no difference
- IL13 in plasma vs PBS ([6]; regulatory cytokine): no difference
- IL17a in plasma vs PBS ([6]; regulatory cytokine): no difference
- IL18 in plasma vs PBS ([6]; regulatory cytokine): significant increase (p<0.05)
- release of adhesions (final conclusion) ([7]; 37 mg/Kg for 20 minutes at 37° C. as a peritoneal washing, murine model): favors the release of adhesions
- other relevant finding upon application of the treatment ([7]; 0.05% in PBS, 20 min, 20 ml, 37° C.): pancreatic reaction
- safety of intraperitoneal application ([7]; 0.05%, vigorous washing at 37° C. for 20 minutes, murine model): safe for intraperitoneal application in a murine model, without associated mortality
- analysis of the models at euthanasia, drug vs PBS ([7]; 2 months after the use of drug or PBS): did not show any significant differences; also recorded: fewer adhesions did subjectively appear
- histological study of tissues ([7]; animals with small or large meshes, peritoneal washing with collagenase): are not affected
- amylase ([7]; both study groups): increases in both study groups
- biochemical or hematologic parameters ([7]; serial tests, immediately and at different points of control after the intervention): without finding significant differences with the control groups
